Results published in ChEMBL document CHEMBL3621100, “Discovery of Novel Class I Histone Deacetylase Inhibitors with Promising in Vitro and in Vivo Antitumor Activities” (J Med Chem, 2015).

Key:
Histone deacetylase 11 = biological target: T1, Histone deacetylase 11 (Homo sapiens, UniProt Q96DB2); experiment: Inhibition of recombinant human HDAC11 after 60 mins by fluorescence assay
T1 sequence (Q96DB2 whole entry): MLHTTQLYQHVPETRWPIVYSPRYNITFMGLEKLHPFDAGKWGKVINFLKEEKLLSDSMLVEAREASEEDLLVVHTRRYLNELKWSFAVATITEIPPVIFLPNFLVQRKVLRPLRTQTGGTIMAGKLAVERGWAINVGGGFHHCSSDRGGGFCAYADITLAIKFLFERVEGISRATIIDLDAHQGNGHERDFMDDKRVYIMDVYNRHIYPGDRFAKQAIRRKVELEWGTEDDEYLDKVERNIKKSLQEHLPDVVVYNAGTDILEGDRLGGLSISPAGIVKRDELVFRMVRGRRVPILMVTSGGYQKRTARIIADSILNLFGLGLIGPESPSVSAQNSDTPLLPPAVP

U-937 = experiment: Antiproliferative activity against human U937 cells after 72 hrs by CCK8 assay; assay type: functional; conditions: Homo sapiens, U-937, 72 h
Histone deacetylase 1 = Histone deacetylase 1 (Homo sapiens, UniProt Q13547); experiment: Inhibition of recombinant human HDAC1 after 60 mins by fluorescence assay
Chain of Histone deacetylase 1 (Q13547 whole entry): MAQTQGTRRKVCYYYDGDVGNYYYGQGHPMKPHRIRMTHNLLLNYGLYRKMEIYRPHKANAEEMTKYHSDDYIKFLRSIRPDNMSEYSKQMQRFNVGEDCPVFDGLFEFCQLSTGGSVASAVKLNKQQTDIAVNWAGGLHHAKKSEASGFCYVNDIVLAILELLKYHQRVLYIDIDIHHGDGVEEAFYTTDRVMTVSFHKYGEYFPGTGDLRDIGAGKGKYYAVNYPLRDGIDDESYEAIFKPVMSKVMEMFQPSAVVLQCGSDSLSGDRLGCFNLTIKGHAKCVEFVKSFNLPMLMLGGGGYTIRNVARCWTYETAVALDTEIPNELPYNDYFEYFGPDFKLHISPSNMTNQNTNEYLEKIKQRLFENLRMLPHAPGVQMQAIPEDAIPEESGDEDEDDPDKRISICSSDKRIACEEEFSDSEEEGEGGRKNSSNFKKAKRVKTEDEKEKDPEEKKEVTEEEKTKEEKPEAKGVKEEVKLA

[1] = Antiproliferative activity against human MOLT4 cells after 72 hrs by CCK8 assay; assay type: functional, MOLT-4; conditions: Homo sapiens, MOLT-4, 72 h
[2] = Antiproliferative activity against human WI38 cells after 72 hrs by CCK8 assay; assay type: cell-based, WI-38
Histone deacetylase 7 = biological target: T2, Histone deacetylase 7 (Homo sapiens, UniProt Q8WUI4); experiment: Inhibition of recombinant human HDAC7 after 60 mins by fluorescence assay
T2 sequence (Q8WUI4 whole entry): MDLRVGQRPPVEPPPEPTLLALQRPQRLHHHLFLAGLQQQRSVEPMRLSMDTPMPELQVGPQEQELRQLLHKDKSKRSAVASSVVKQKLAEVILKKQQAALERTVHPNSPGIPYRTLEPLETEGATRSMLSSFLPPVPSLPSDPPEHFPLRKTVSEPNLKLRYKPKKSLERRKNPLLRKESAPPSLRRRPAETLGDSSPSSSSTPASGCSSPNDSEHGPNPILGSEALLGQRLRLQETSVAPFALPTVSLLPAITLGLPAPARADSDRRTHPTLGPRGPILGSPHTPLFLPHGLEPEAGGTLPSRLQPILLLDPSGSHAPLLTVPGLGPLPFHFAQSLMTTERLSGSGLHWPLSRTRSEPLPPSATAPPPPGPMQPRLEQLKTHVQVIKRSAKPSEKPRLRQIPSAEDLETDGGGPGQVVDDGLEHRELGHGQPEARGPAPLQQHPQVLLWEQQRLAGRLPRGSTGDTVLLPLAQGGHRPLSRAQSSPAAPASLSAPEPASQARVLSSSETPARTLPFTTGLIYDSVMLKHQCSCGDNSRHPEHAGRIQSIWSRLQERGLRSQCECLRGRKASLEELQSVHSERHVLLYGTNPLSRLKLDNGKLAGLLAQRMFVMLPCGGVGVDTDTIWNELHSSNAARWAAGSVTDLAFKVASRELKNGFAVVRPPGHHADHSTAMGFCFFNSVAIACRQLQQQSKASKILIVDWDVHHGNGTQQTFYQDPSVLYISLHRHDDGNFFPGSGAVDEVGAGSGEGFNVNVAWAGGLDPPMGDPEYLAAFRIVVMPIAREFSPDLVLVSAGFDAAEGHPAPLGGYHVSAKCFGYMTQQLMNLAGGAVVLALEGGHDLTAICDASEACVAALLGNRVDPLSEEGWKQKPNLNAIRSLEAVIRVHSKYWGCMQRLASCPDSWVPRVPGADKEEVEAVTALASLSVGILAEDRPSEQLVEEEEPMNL

Histone deacetylase 8 = biological target: T3, Histone deacetylase 8 (Homo sapiens, UniProt Q9BY41); experiment: Inhibition of recombinant human HDAC8 after 60 mins by fluorescence assay
T3 sequence (Q9BY41 whole entry): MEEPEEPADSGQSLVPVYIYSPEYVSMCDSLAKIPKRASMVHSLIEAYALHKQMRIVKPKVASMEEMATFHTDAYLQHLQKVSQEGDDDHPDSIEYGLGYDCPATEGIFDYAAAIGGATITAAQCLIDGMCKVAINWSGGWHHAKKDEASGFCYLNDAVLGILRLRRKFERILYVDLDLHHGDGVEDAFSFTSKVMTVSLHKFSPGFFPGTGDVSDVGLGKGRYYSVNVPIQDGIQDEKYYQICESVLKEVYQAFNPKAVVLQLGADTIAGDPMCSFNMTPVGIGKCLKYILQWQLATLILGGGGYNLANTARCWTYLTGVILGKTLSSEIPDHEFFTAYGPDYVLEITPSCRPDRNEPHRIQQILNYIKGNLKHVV

Histone deacetylase 5 = Histone deacetylase 5 (Homo sapiens, UniProt Q9UQL6); experiment: Inhibition of recombinant human HDAC5 after 60 mins by fluorescence assay
Chain of Histone deacetylase 5 (Q9UQL6 whole entry): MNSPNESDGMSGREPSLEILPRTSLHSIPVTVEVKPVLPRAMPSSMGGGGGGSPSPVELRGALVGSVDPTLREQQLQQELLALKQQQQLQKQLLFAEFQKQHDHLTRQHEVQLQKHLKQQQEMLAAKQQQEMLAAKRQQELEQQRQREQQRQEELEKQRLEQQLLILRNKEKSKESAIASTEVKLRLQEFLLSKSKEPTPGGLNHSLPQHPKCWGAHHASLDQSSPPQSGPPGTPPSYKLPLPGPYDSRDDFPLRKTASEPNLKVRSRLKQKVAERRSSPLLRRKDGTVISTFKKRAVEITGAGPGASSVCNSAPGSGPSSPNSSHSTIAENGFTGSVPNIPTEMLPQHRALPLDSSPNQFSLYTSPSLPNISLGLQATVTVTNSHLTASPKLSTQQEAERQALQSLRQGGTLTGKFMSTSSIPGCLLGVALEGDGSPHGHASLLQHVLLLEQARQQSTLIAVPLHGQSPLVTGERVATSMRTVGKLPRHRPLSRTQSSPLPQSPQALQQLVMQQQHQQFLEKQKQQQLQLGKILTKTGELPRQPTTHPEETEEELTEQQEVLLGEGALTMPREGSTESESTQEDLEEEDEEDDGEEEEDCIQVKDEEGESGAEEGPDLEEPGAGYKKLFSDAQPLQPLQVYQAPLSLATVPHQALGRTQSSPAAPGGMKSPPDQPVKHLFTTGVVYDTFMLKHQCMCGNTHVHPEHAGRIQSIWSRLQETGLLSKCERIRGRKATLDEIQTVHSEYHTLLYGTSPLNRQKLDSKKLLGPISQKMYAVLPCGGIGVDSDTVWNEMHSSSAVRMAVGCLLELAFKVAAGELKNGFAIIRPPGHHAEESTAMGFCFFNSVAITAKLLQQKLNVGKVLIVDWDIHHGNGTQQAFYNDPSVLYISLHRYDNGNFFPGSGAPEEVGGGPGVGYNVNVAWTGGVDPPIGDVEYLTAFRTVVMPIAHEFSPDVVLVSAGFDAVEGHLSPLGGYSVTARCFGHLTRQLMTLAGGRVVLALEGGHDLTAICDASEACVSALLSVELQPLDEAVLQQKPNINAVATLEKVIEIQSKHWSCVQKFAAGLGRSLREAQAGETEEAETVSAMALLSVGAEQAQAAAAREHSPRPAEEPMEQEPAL

[3] = biological target: T4, Polyamine deacetylase HDAC10 (Homo sapiens, UniProt Q969S8); experiment: Inhibition of recombinant human HDAC10 after 60 mins by fluorescence assay
T4 sequence (Q969S8 whole entry): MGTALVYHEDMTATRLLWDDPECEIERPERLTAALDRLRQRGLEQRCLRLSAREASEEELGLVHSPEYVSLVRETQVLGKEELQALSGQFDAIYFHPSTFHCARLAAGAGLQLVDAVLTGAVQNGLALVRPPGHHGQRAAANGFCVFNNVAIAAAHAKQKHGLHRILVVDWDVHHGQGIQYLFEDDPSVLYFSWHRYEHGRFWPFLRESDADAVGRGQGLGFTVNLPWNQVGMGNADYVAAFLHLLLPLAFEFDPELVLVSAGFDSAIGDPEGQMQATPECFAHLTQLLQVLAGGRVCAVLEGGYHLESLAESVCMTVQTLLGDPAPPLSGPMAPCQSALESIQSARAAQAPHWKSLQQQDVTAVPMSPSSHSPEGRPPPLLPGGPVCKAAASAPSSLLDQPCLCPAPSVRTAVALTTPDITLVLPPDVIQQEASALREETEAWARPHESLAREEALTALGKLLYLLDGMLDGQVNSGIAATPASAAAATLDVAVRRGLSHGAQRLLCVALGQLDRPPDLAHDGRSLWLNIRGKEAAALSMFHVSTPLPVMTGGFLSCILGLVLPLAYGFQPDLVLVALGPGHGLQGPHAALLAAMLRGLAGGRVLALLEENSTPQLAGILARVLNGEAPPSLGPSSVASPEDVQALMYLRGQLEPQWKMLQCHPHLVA

[4] = Antiproliferative activity against human HLF cells after 72 hrs by CCK8 assay; assay type: cell-based

Compound | IC50 (Histone deacetylase 11) [nM] | IC50 (Histone deacetylase 1) [nM] | IC50 (Histone deacetylase 7) [nM] | IC50 (Histone deacetylase 8) [nM] | IC50 (Histone deacetylase 5) [nM] | IC50 [3] [nM] | GI50 (U-937) [nM] | GI50 [1] [nM] | GI50 at 72 h [2] [nM] | GI50 at 72 h [4] [nM]
C/C=C1\NC(=O)c2csc(n2)CNC(=O)C[C@@H](/C=C/CCSC(C)=O)OC(=O)[C@H](C(C)C)NC1=O | > 10000 | 21.6 | > 10000 | > 10000 | > 10000 | 751 | 10.5 | 7.22 | 258 | 321
C/C=C1\NC(=O)c2csc(n2)[C@@H](C(C)C)NC(=O)C[C@@H](/C=C/CCSC(=O)CCCCCCC)OC(=O)[C@H](C(C)C)NC1=O | > 10000 | 165 | > 10000 | > 10000 | > 10000 | 395 | 31.7 | 22 | 561 | 710
C/C=C1\NC(=O)c2csc(n2)CNC(=O)C[C@@H](/C=C/CCSC(=O)CCCCCCC)OC(=O)[C@H](C(C)C)NC1=O | > 10000 | 158 | > 10000 | > 10000 | > 10000 | 1930 | 6.59 | 5.87 | 157 | 312

Further lines, with some results ahead:

IC50 (Histone deacetylase 11) [nM] | IC50 (Histone deacetylase 1) [nM] | IC50 (Histone deacetylase 7) [nM] | IC50 (Histone deacetylase 8) [nM] | IC50 (Histone deacetylase 5) [nM] | IC50 [3] [nM] | Compound | GI50 (U-937) [nM] | GI50 [1] [nM] | GI50 at 72 h [2] [nM] | GI50 at 72 h [4] [nM]
> 10000 | 2.18 | > 10000 | 2550 | > 10000 | 138 | C/C=C1\NC(=O)c2csc(n2)[C@@H](C(C)C)NC(=O)C[C@@H](/C=C/CCS)OC(=O)[C@H](C(C)C)NC1=O | – | – | – | –
> 10000 | 2.78 | > 10000 | 3550 | > 10000 | 37.4 | C/C=C1\NC(=O)c2csc(n2)CNC(=O)C[C@@H](/C=C/CCS)OC(=O)[C@H](C(C)C)NC1=O | – | – | – | –
